# Earlier results, collected in US8026262B2, “Chemical compounds” (GlaxoSmithKline LLC, priority 2006, dated 2011).
# How the values were obtained:
# [1] = system: ovariectomized (OVX) rats
# [2] = system: ORX rats
Compound,biomechanical strength of femoral cortical bone ([1]; 2 month period),periosteal mineral apposition rate of the femur [1],BMD of femoral cortical bone ([1]; 2 month period),"bone mineral density (BMD) of femur ([2]; 4 weeks, as markedly as DHT)","levator ani muscle weight ([2]; 4 weeks, as markedly as DHT)","prostate weight ([2]; versus eugonadal rats, at any doses tested)"
estrogen,did not,–,–,–,–,–
CN(C)[C@H]1C[C@@H](C(C)(C)CO)Nc2ccc([N+](=O)[O-])cc21 [Example S-40503],significantly increased,increase,significantly increased,increased,increased,not elevated
